This note sets out measurements from patent publication US11471462B2, “Compositions and methods for detecting and treating diabetes” (THE BROAD INSTITUTE, INC., priority 2016, dated 2022).

Holding throughout (format): cell-based, human
The subject of test [1] is SLC16A11 protein. The test is described as follows: Proteasomal degradation: SLC16A11 protein levels by Western blot. Conditions: HuH7 cells stably expressing SLC16A11^REF-V5; 5 μM for 3 hrs. As for the experimental part:
FIG. 5D (top panel) provides two Western blots showing that SLC16A11 is degraded by the proteasome and has a short half-life relative to other SLC16 family members. […] HEK293T cells expressing V5-tagged SLC16A11^REF, SLC16A13, or SLC16A1 were treated with cycloheximide (10 μg/mL) for the indicated times. Note that the SLC16A11, SLC16A13, and SLC16A1 images are from different exposure times. […] HuH7 cells stably expressing SLC16A11^REF-V5 were treated with MG132 (5 μM) or cyclohexamide for 3 hrs. FIG. 5D (bottom panel) provides Western blot showing SLC16A11 and BSG co-immunoprecipitations. (5D-A-5D-C): Co-immunoprecipitation of SLC16A11 and BSG confirms the reduced interaction between SLC16A11^T2D and BSG in HEK293T cells. BSG is glycosylated and runs as multiple bands by reducing SDS-PAGE. Molecular weight markers (kDa) are indicated. (5D-A): Interaction of BSG-V5 with immunoprecipitated SLC16A11-HA. (5D B): Interaction of SLC16A11-HA with immunoprecipitated BSG-V5. (C) Interaction of endogenous BSG with immunoprecipitated SLC16A11-HA. […]
Total protein concentration was measured using a BCA assay (Thermo Fisher Scientific) and equal quantities of protein were loaded on each gel. […] Signals were detected with HRP-conjugated secondary antibodies, followed by chemiluminescent detection and autoradiography. […]
In general terms: Immunoblotting shows a protein as a band on a membrane.

In test [2] the test system is SLC16A11 protein. The test is described as follows: SLC16A11 protein levels in HuH7 cells cultured with metabolites (Western blot). Conditions: HuH7 cells stably expressing SLC16A11, cultured with metabolite 24 hr. The source says:
FIG. 19 provides Western blots and experimental protocol steps involved in the analysis of SLC16A11 protein levels after culture of HuH7 cells stably expressing SLC16A11 in the presence or absence of various metabolites, namely, pyruvate, lactate and glucose. Cell lysates were used in the analysis. […] Tubulin is shown as a reference. As shown, glucose, pyruvate and […] are metabolites that affect SLC16A11 protein levels.
FIG. 20 provides Western blots of V5-tagged SLC16A11 (WT) and the V5-tagged SLC16A11 variant, T2D risk, stably expressed in HuH7 cells that had been glucose-starved for the times indicated. Cell lysates were used in the analysis. […] A similar finding is observed in the left blot of FIG. 19, above, in which no SLC16A11 protein was detected in cell lysates cultured for 24 hrs without glucose compared with detectable levels of SLC16A11 protein found in lysates from cultures containing 1-5 g/L of glucose.
FIG. 21 provides Western blots of V5-tagged SLC16A11 (WT) and the V5-tagged SLC16A11 variant, T2D risk, stably expressed in HuH7 cells that been cultured for 24 hours with or without glucose and with either low (L) or high (H) concentrations of pyruvate and lactate as indicated. Cell lysates were used in the analysis. […]

Another test concerns SLC16A11. Nature of the test: Metabolic effectors on SLC16A11 transcript levels in SNU761 cells. Conditions: 24 hours, low and high concentrations. How it is done:
(§1) FIG. 22 provides bar graphs showing the effects of low and high concentrations of metabolic effectors (oleic acid (OA), insulin and glucagon) on expression levels of SLC16A11 and SLC16A13 transcripts in SNU761 cells cultured for 24 hours in the presence of low/high concentrations of OA (0.3 mM/1.5 mM); insulin (100 nM/500 nM); or glucagon (100 nM/500 nM). Relative transcipt levels of SLC16A11 and SLC16A13 are shown, with 2-FBS (2% Fetal Bovine Serum) used as control.
(§2) FIG. 23 provides bar graphs showing the effects of low and high concentrations of pyruvate or lactate on expression levels of SLC16A11 and SLC16A13 transcripts in SNU761 cells cultured for 24 hours in the presence of 2 mM pyruvate (low), 10 mM pyruvate (high), 20 mM lactate (low), or 100 mM lactate (high). Relative transcipt levels of SLC16A11 and SLC16A13 are shown, compared with transcript levels in cell cultured in increasing concentrations of glucose.
(§3) To assess whether metabolic effectors regulated SLC16A11 and SLC16A13 transcript levels, endogenous transcripts in SNU761 cells (derived from a human hepatocellular carcinoma) were examined following exposure of the cells to different metabolic perturbations. SNU761 cells were cultured in the presence of various metabolic effectors for 24 hours after which time cell lysates were collected and the relative endogenous expression levels of SLC16A11 and SLC16A13 transcripts were assessed. The metabolic effectors included in the cell cultures included oleic acid (OA) at a low concentration (0.3 mM) or a high concentration (1.5 mM); insulin at a low concentration (100 nM) or a high concentration (500 nM) and glucagon at a low concentration (100 nM) and a high concentration (500 nM). Cells cultured in 2-FBS were used as a control. […] (FIG. 22). Similarly, SNU761 cells were cultured in the presence or absence of low or high concentrations of pyruvate or lactate in the culture medium for 24 hours after which time cell lysates were analyzed. In the cultures, low (L) pyruvate concentration was 2 mM; high (H) pyruvate concentration was 10 mM, and low lactate concentration was 20 mM, while high lactate concentration was 100 mM. […] (FIG. 23).

A further test relates to SLC16A13. Nature of the test: Metabolic effectors on SLC16A13 transcript levels in SNU761 cells. Conditions: 24 hours, high concentration (10 mM pyruvate, 100 mM lactate). How it is done: as §1, §2, §3

Residues, ends and D or L forms follow the SMILES beside them. *: point of attachment. Cbz = O=C(OCc1ccccc1)*

On to `CC(C)C[C@@H](C=O)NC(=O)[C@H](CC(C)C)NC(=O)[C@H](CC(C)C)NC(=O)OCc1ccccc1` [MG132] (Cbz-Leu-Leu-Leu-aldehyde), for which, in the test on SLC16A11 protein [1], the SLC16A11 protein levels entry was “increased”.
Take `CC(O)C(=O)O` (stereo not shown) [lactate]: the SLC16A11 protein levels entry in the test on SLC16A11 protein [2] was “alter SLC16A11 protein levels”. For the same compound, the SLC16A11 transcript levels result with SLC16A11 is on record as “alter transcripts at 17p13”. Moreover, in the test with SLC16A13, the “relative transcript levels of SLC16A13” value is “increased”.
